For the test, the target named is leukotriene B4 receptors (Cavia porcellus, UniProt H0VYV8). As to the kind of experiment: biochemical. The test is classed as binding, guinea-pig. To be noted: for IC50: Table XIX, guinea-pig spleen membranes, tritium-labelled LTB4, read-out: IC50 Binding (Cheng); for inhibition at 10 µM: read-out: Binding (Cheng) % Inhibition at 10 μM.
Chain of leukotriene B4 receptors (H0VYV8 1-348): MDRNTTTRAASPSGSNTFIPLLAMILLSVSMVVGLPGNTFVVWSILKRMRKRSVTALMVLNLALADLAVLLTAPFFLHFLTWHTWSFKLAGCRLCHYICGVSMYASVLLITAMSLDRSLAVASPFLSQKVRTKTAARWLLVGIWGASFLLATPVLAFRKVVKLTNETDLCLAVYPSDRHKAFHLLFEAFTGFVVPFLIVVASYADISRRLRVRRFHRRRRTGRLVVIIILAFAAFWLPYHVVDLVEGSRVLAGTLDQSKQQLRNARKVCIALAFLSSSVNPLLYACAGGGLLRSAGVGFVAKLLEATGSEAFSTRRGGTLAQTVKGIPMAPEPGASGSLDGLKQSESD

On to `O=C(O)COCCCOc1cc(-c2ccccc2)cc(-c2ccccc2)n1`, for which the IC50 was 100 nM.
Take `O=C(O)CCCCCCCSc1nc(-c2ccccc2)c2ccccc2n1`: the IC50 was determined as 9000 nM.
On to `O=C(O)CCCCCCCSc1ncc(-c2ccccc2)c(-c2ccccc2)n1`, for which the half-maximal inhibitory concentration (IC50) was found to be 3000 nM.
With `O=C(O)CCCCCCCOc1ccc(-c2ccccc2)c(-c2ccccc2)n1`, the IC50 came to 10000 nM.
In the case of `O=C(O)CCCCCCCOc1cccc(-c2ccccc2)n1`, the IC50 came out at 6000 nM.
In the case of “6-[(6-cyclopropyl-5-phenyl-2-pyridyl)oxy]hexanoic acid”, the IC50 was 40 nM.
On to `O=C(CCCCCOc1cc(-c2ccccc2)c2ccccc2n1)N1CCCC1` [1-[6-(4-phenyl-2-quinolyloxy)hexanoyl]pyrrolidine], for which the inhibition at 10 µM was found to be 12%.
For the compound `CC(C)(CCCCOc1cc(-c2ccccc2)c2ccccc2n1)C(=O)O` [2,2-dimethyl-6-[(4-phenyl-2-quinolyl)oxy]hexanoic acid], the 50% inhibitory concentration (IC50) worked out at 150 nM.
With `CC(C)(CCCCSc1cc(-c2ccccc2)c2ccccc2n1)C(=O)O` [2,2-dimethyl-6-[(4-phenyl-2-quinolyl)thio]hexanoic acid], the inhibition at 10 µM was 33%.
For the compound `CC(C)(CCCCOc1cc(-c2ccccc2)c2cc(Cl)ccc2n1)C(=O)O` [2,2-dimethyl-6-[(6-chloro-4-phenyl-2-quinolyl)oxy}hexanoic acid], the IC50 is 2500 nM.
In the case of `Cc1ccc2c(-c3ccccc3)cc(OCCCCC(C)(C)C(=O)O)nc2c1` [2,2-dimethyl-6-[(7-methyl-4-phenyl-2-quinolyl)oxy]hexanoic acid], the IC50 turned out to be 2000 nM.
In the case of `CC(C)(CCCCOc1cc(-c2cccs2)c2ccccc2n1)C(=O)O` [2,2-dimethyl-6-{[4-(2-thienyl)-2-quinolyl]oxy}hexanoic acid], the 50% inhibitory concentration (IC50) stood at 200 nM.
In the case of `CC(C)(CCCCOc1cc(-c2ccc(Cl)c(Cl)c2)c2ccccc2n1)C(=O)O` [2,2-dimethyl-6-{[4-(3,4-dichlorophenyl)-2-quinolyl]oxy}hexanoic acid], the IC50 is 3500 nM.
Consider `CC(C)(CCCCOc1cc(-c2cccc(Cl)c2)c2ccccc2n1)C(=O)O` [2,2-dimethyl-6-{[4-(3-chlorophenyl)-2-quinolyl]oxy}hexanoic acid], for which the half-maximal inhibitory concentration (IC50) was 1100 nM.
Regarding `COc1cccc(-c2cc(OCCCCC(C)(C)C(=O)O)nc3ccccc23)c1` [2,2-dimethyl-6-{[4-(3-methoxyphenyl)-2-quinolyl]oxy}hexanoic acid], the IC50 was found to be 300 nM.
Consider `Cc1cccc(-c2cc(OCCCCC(C)(C)C(=O)O)nc3ccccc23)c1` [2,2-dimethyl-6-{[4-(3-tolyl)-2-quinolyl]oxy}hexanoic acid], for which the half-inhibitory concentration (IC50) was determined as 3500 nM.
Consider `CC(C)(CCCCOc1cc(-c2ccc(N)cc2)c2ccccc2n1)C(=O)O` [2,2-dimethyl-6-{[4-(4-aminophenyl)-2-quinolyl]oxy}hexanoic acid], for which the IC50 came out at 40 nM.
On the same count and under the same terms, in the case of `CC(C)(CCCCOc1cc(-c2ccc(Cl)cc2)c2ccccc2n1)C(=O)O` [2,2-dimethyl-6-{[4-(4-chlorophenyl)-2-quinolyl]oxy}hexanoic acid] it was 15 nM.
As for `CC(C)(CCCCOc1cc(-c2ccc(Cl)cc2)cc(-c2ccccc2)n1)C(=O)O` [2,2-dimethyl-6-{[4-(4-chlorophenyl)-6-phenyl-2-pyridyl]oxy}hexanoic acid], the half-inhibitory concentration (IC50) is 100 nM.
As for `CN(C)c1ccc(-c2cc(OCCCCC(C)(C)C(=O)O)nc3ccccc23)cc1` [2,2-dimethyl-6-{[4-(4-dimethylaminophenyl)-2-quinolyl]oxy}hexanoic acid], the IC50 was 30 nM.
On to `CC(C)(CCCCOc1cc(-c2ccc(F)cc2)c2ccccc2n1)C(=O)O` [2,2-dimethyl-6-{[4-(4-fluorophenyl-2-quinolyl]oxy}hexanoic acid], for which the concentration for half-maximal inhibition (IC50) came to 150 nM.
Still for that read-out and setting: to `CC(C)(CCCCOc1cc(-c2ccc([N+](=O)[O-])cc2)c2ccccc2n1)C(=O)O` [2,2-dimethyl-6-{[4-(4-nitrophenyl)-2-quinolyl]oxy}hexanoic acid] belongs 150 nM; to `Cc1ccc(-c2cc(OCCCCC(C)(C)C(=O)O)nc3ccccc23)cc1` [2,2-dimethyl-6-{[4-(4-tolyl)-2-quinolyl]oxy}hexanoic acid], 30 nM.
Still for that read-out and setting: in the case of `CC(C)(CCCCOc1cc(-c2ccc(C(F)(F)F)cc2)c2ccccc2n1)C(=O)O` [2,2-dimethyl-6-{[4-(4-trifluoromethylphenyl)-2-quinolyl]oxy}hexanoic acid] it was 300 nM; in that of `CC(C)(CCCCCCSc1ncc(-c2ccccc2)c(-c2ccccc2)n1)C(=O)O` [2,2-dimethyl-8-(4,5-diphenyl-2-pyrimidylthio)octanoic acid], 2500 nM.
Turning to `CC(C)(CCCCCCOc1cc(-c2ccccc2)cc(-c2ccccc2)n1)C(=O)O` [2,2-dimethyl-8-[(4,6-diphenyl-2-pyridyl)oxy]octanoic acid], the IC50 worked out at 22 nM.
Regarding `CCC(C)(CCCCOc1cc(-c2ccccc2)c2ccccc2n1)C(=O)O` (stereo not drawn) [2-ethyl-2-methyl-6-[(4-phenyl-2-quinolyl)oxy]hexanoic acid], the concentration for half-maximal inhibition (IC50) is 110 nM.
For the compound `CCC(CCCCOc1cc(-c2ccc(Cl)cc2)c2ccccc2n1)C(=O)O` (stereo not drawn) [2-ethyl-6-{[4-(4-chlorophenyl)-2-quinolyl]oxy}hexanoic acid], the half-inhibitory concentration (IC50) worked out at 200 nM.
Turning to `CC(CCCCOc1cc(-c2ccccc2)c2ccccc2n1)C(=O)O` (stereo not drawn) [2-methyl-6-[(4-phenyl-2-quinolyl)oxy]hexanoic acid], the IC50 is 550 nM.
For `CC(CCCCOc1cc(-c2ccc(Cl)cc2)c2ccccc2n1)C(=O)O` (stereo not drawn) [2-methyl-6-{[4-(4-chlorophenyl)-2-quinolyl]oxy}hexanoic acid], the IC50 is 30 nM.
Regarding `COc1ccc(-c2cc(OCCCCC(C)C(=O)O)nc3ccccc23)cc1` (stereo not drawn) [2-methyl-6-{[4-(4-methoxyphenyl)-2-quinolyl]oxy}hexanoic acid], the IC50 was found to be 16 nM.
As for `O=C(CCCOc1cc(-c2ccccc2)cc(-c2ccccc2)n1)Nc1ccccc1` [4-[(4,6-diphenyl-2-pyridyl)oxy]butanilide], the IC50 is over 1000 nM.
For `O=C(O)CCCOc1cc(-c2ccccc2)cc(-c2ccccc2)n1` [4-[(4,6-diphenyl-2-pyridyl)oxy]butanoic acid], the IC50 turned out to be 300 nM.
Regarding `CC(C)(CCCCOc1cc(-c2ccccc2)c2ccccc2n1)c1nnn[nH]1` [5-{1,1-dimethyl-5-[(4-phenyl-2-quinolyl)oxy]pentyl}-[1H]-tetrazole], the IC50 came to 400 nM.
Take `CC(C)(CCCCOc1cc(-c2ccc(Cl)cc2)c2ccccc2n1)c1nnn[nH]1` [5-{1,1-dimethyl-5-{[4-(4-chlorophenyl)-2-quinolyl]oxy}pentyl}-[1H]-tetrazole]: the IC50 is 30 nM.
For `c1ccc(-c2cc(OCCCCCc3nnn[nH]3)nc3ccccc23)cc1` [5-{5-[(4-phenyl-2-quinolyl)oxy]pentyl}-[1H]-tetrazole], the IC50 was determined as 500 nM.
Turning to `Clc1ccc(-c2cc(OCCCCCc3nnn[nH]3)nc3ccccc23)cc1` [5-{5-{[4-(4-chlorophenyl)-2-quinolyl]oxy}pentyl}-[1H]-tetrazole], the IC50 stood at 25 nM.
In the case of `c1ccc(-c2cc(-c3ccc4c(c3)OCO4)cc(OCCCCCc3nnn[nH]3)n2)cc1` [5-{5-{[6-phenyl-4-(3,4-methylenedioxyphenyl)-2-pyridyl]oxy}pentyl}-1H-tetrazole], the IC50 turned out to be 2 nM.
Take `O=C(O)CCCCCOc1cc(-c2ccccc2)cc(-c2ccccc2)c1` [6-(3,5-diphenyl-phenoxy)hexanoic acid]: the half-maximal inhibitory concentration (IC50) stood at 8 nM.
Take `O=C(O)CCCCCOc1ncc(-c2ccccc2)c(-c2ccccc2)n1` [6-(4,5-diphenyl-2-pyrimidyloxy)hexanoic acid]: the inhibition at 10 µM turned out to be 35%.
For the compound `O=C(O)CCCCCSc1ncc(-c2ccccc2)c(-c2ccccc2)n1` [6-(4,5-diphenyl-2-pyrimidylthio)hexanoic acid], the concentration for half-maximal inhibition (IC50) was 8000 nM.
Take `O=C(O)CCCCCOc1ncc(-c2ccc(Cl)cc2)c(-c2ccc(Cl)cc2)n1` [6-[4,5-bis-(4-chlorophenyl)-2-pyrimidyloxy]hexanoic acid]: the inhibition at 10 µM was found to be 48%.
For the compound `COc1ccc(-c2cnc(OCCCCCC(=O)O)nc2-c2ccc(OC)cc2)cc1` [6-[4,5-bis-(4-methoxyphenyl)-2-pyrimidyloxy]hexanoic acid], the concentration for half-maximal inhibition (IC50) amounted to 8000 nM.
For the compound `O=C(O)CCCCCOc1nc(-c2ccccc2)cc(-c2ccccc2)n1` [6-[(4,6-diphenyl-2-pyrimidyl)oxy]hexanoic acid], the IC50 is 150 nM.
As for `O=C(O)CCCCCOc1cc(-c2ccccc2)ccn1` [6-[(4-phenyl-2-pyridyl)oxy]hexanoic acid], the concentration for half-maximal inhibition (IC50) was determined as 900 nM.
As to `O=C(O)CCCCCOc1cc(-c2ccccc2)c2ccccc2n1` [6-[(4-phenyl-2-quinolyl)oxy]hexanoic acid], the IC50 worked out at 700 nM.
On to `CC(C)(CCCCOc1ccc(-c2ccccc2)c(-c2ccccc2)n1)C(=O)O` [6-[(5,6-diphenyl-2-pyridyl)oxy]-2,2-dimethylhexanoic acid], for which the concentration for half-maximal inhibition (IC50) came to 10000 nM.
Regarding `O=C(O)CCCCCOc1ccc(-c2ccccc2)c(-c2ccccc2)n1` [6-[(5,6-diphenyl-2-pyridyl)oxy]hexanoic acid], the inhibition at 10 µM worked out at 15%.
On the same count and under the same terms, in the case of `COc1ccc2nc(OCCCCCC(=O)O)cc(-c3ccccc3)c2c1` [6-[(6-methoxy-4-phenyl-2-quinolyl)oxy]hexanoic acid] it was 30%.
For the compound `Cc1cc(-c2ccccc2)cc(OCCCCC(C)(C)C(=O)O)n1` [6-[(6-methyl-4-phenyl-2-pyridyl)oxy]-2,2-dimethylhexanoic acid], the IC50 is 10 nM.
As for `Cc1cc(-c2ccccc2)cc(OCCCCCC(=O)O)n1` [6-[(6-methyl-4-phenyl-2-pyridyl)oxy]hexanoic acid], the concentration for half-maximal inhibition (IC50) turned out to be 200 nM.
Regarding `Cc1ccc2nc(OCCCCC(C)(C)C(=O)O)cc(-c3ccccc3)c2c1` [6-[(6-methyl-4-phenyl-2-quinolyl)oxy]-2,2-dimethylhexanoic acid], the IC50 was 5000 nM.
With `CC(C)(CCCCOc1cccc(-c2ccccc2)n1)C(=O)O` [6-[(6-phenyl-2-pyridyl)oxy]-2,2-dimethylhexanoic acid], the IC50 is 2000 nM.
As for `O=C(O)CCCCCOc1cc(-c2ccc(Cl)cc2)cc(-c2ccc(Cl)cc2)n1` [6-{[4,6-di(4-chlorophenyl)-2-pyridyl]oxy}hexanoic acid], the IC50 stood at 1200 nM.

These data come from US5366982A (priority 1990, dated 1994).
